Results published in US20240254129A1, “HETEROCYCLIC COMPOUNDS AND USES THEREOF” (Kumquat Biosciences Inc., priority 2021, published 2024).
pIC50: −log10 of the molar value.

How the values were obtained:
[1] = target: GST-tagged K-Ras mutant / His-tagged hSOS1 (Homo sapiens, UniProt P01116); assay: HTRF assay, K-Ras mutant / SOS1 interaction; format: binding; conditions: compound nos. 401-703; read-out: IC50 against mutant Kras
Procedure, shortened: (§1)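 GST-tagged K-Ras (mutant or wildtype) with anti-GST-Eu donor was mixed with His-hSOS1 and anti-6His-XL665 acceptor in HEPES pH 7.4 buffer with NaCl, DTT, BSA and Igepal. After ≥10 min, HTRF was read (ex 337 nm, em 620/665 nm); 665/620 ratios gave IC50 from duplicate dilution series.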

wildtype Kras / hSOS1 = target: T1, wildtype Kras / hSOS1 (Homo sapiens, UniProt P01116); assay: HTRF assay, wildtype Kras / SOS1 interaction; format: binding; conditions: compound nos. 401-703; read-out: IC50 against wildtype Kras
T1 construct: made in house; host or cells: E. coli BL21 (DE3)
T1 sequence (P01116 1-188 isoform P01116-2): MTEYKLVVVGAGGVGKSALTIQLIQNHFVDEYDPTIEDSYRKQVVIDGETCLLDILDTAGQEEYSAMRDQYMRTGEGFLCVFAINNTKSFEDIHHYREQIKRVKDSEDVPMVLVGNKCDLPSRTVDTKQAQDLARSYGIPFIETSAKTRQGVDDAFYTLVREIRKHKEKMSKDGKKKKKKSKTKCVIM
Procedure, shortened: as §1

Sequence of GST-tagged K-Ras mutant / His-tagged hSOS1 (P01116 whole entry G12D, form open): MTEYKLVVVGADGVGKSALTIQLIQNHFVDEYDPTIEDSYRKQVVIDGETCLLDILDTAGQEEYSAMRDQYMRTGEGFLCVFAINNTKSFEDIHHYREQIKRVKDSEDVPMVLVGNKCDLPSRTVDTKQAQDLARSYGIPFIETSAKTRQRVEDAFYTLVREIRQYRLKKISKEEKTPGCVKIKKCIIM

SMILES | pIC50 [1] | pIC50 (wildtype Kras / hSOS1)
CN1CCC[C@H]1COc1nc(N2CCCC(NS(=O)(=O)C3CC3)CC2)c2cc(Cl)c(-c3cccc4sc(N)nc34)c(F)c2n1 (stereo partly drawn) [Compound 472, N-(1-(7-(2-aminobenzo[d]-thiazol-4-yl)-6-chloro-8-fluoro-2-(((S)-1-methylpyr-rolidin-2-yl)methoxy)quin-azolin-4-yl)azepan-4-yl)-cyclopropanesulfonamide] | > 6.30 | > 6.30
N#Cc1c(N)sc2c(F)ccc(-c3c(Cl)cc4c(N5CC6CCC(C5)O6)nc(OC[C@@]56CCCN5C[C@H](F)C6)nc4c3F)c12 [Compound 473, 4-(4-(8-oxa-3-azabicyclo-[3.2.1]octan-3-yl)-6-chloro-8-fluoro-2-(((2R,7aS)-2-fluorotetrahydro-1H-pyrrol-izin-7a(5H)-yl)methoxy)-quinazolin-7-yl)-2-amino-7-fluorobenzo[b]thiophene-3-carbonitrile] | > 6.30 | > 6.30
COC1CCCCN(c2nc(OC[C@@H]3CCCN3C)nc3c(F)c(-c4cccc5sc(N)nc45)c(Cl)cc23)C1 (stereo partly drawn) [Compound 474, 4-(6-chloro-8-fluoro-4-(3-methoxyazepan-1-yl)-2-(((S)-1-methylpyrrolidin-2-yl)methoxy)quinazolin-7-yl)benzo[d]thiazol-2-amine] | > 6.30 | > 6.30
CN1CCC[C@H]1COc1nc(N2CCCS(=O)(=O)CC2)c2cc(Cl)c(-c3cccc4sc(N)nc34)c(F)c2n1 [Compound 475, 4-(7-(2-aminobenzo[d]-thiazol-4-yl)-6-chloro-8-fluoro-2-(((S)-1-methyl-pyrrolidin-2-yl)methoxy)-quinazolin-4-yl)-1,4-thiazepane 1,1-dioxide] | > 6.30 | > 6.30
Nc1nc2c(-c3c(Cl)cc4c(N5CCCS(=O)(=O)CC5)nc(OC[C@@]56CCCN5C[C@H](F)C6)nc4c3F)ccc(F)c2s1 [Compound 477, 4-(7-(2-amino-7-fluoroben-zo-[d]thiazol-4-yl)-6-chloro-8-fluoro-2-(((2R,7aS)-2-fluorotetrahydro-1H-pyrrolizin-7a(5H)-yl)meth-oxy)quinazolin-4-yl)-1,4-thiazepane 1,1-dioxide] | > 6.30 | > 6.30
Cc1ccc2cnn(C)c2c1-c1ccc2c(N3CC4CCC(C3)N4)nc(OC[C@@]34CCCN3C[C@H](F)C4)nc2c1F [Compound 478, 4-(3,8-diazabicyclo-[3.2.1]octan-3-yl)-7-(1,6-dimethyl-1H-indazol-7-yl)-8-fluoro-2-(((2R,7aS)-2-fluorotetrahydro-1H-pyrrolizin-7a(5H)-yl)meth-oxy)quinazoline] | < 6.30 | > 6.30
Fc1c(Br)c(Cl)cc2c(N3CC4CCC(C3)N4)nc(OC[C@@]34CCCN3C[C@H](F)C4)nc12 [Compound 479, 4-(3,8-diazabicyclo[3.2.1]-octan-3-yl)-7-bromo-6-chloro-8-fluoro-2-(((2R,7aS)-2-fluorotetra-hydro-1H-pyrrolizin-7a(5H)-yl)methoxy)quin-azoline] | < 6.30 | > 6.30
CNCC1CN(c2nc(OCC34CCCN3CCC4)nc3c(F)c(-c4ccc(F)c5sc(N)nc45)c(Cl)cc23)CCCO1 (stereo not shown) [Compound 481, 4-(6-chloro-8-fluoro-4-(2-((methylamino)methyl)-1,4-oxazepan-4-yl)-2-((tetra-hydro-1H-pyrrolizin-7a(5H)-yl)methoxy)quinazolin-7-yl)-7-fluorobenzo[d]thiazol-2-amine] | > 6.30 | > 6.30
Fc1c(-c2cccc(-c3ccccc3)c2)c(Cl)cc2c(N3CCCCCC3)nc(OCC34CCCN3CCC4)nc12 [Compound 482, 7-([1,1′-biphenyl]-3-yl)-4-(azepan-1-yl)-6-chloro-8-fluoro-2-((tetrahydro-1H-pyrrolizin-7a(5H)-yl)meth-oxy)quinazoline] | < 6.30 | > 6.30
Nc1nc2c(-c3cc4c(=O)n(CCN5CCCC5)nc(N5CCCOCC5)c4cc3Cl)ccc(F)c2s1 [Compound 484, 7-(2-amino-7-fluorobenzo-[d]thiazol-4-yl)-6-chloro-4-(1,4-oxazepan-4-yl)-2-(2-(pyrrolidin-1-yl)ethyl)phthal-azin-1(2H)-one] | < 6.30 | > 6.30
Fc1c(N2CCc3ccccc32)ccc2c(N3CCCCCC3)nc(OCC34CCCN3CCC4)nc12 [Compound 487, 4-(azepan-1-yl)-8-fluoro-7-(indolin-1-yl)-2-((tetra-hydro-1H-pyrrolizin-7a(5H)-yl)methoxy)quin-azoline] | < 6.30 | > 6.30
CN(C)CC1(COc2nc(N3CCNCC(F)(F)C3)c3cc(Cl)c(-c4ccc(F)c5sc(N)nc45)c(F)c3n2)CC1 [Compound 489, 4-(6-chloro-4-(6,6-difluoro-1,4-diazepan-1-yl)-2-((1-((dimethylamino)methyl)-cyclopropyl)methoxy)-8-fluoroquinazolin-7-yl)-7-fluorobenzo[d]thiazol-2-amine] | > 6.30 | > 6.30
CN1CCC[C@H]1COc1nc(N2CCCC(n3ccnc3)CC2)c2cc(Cl)c(-c3cccc4sc(N)nc34)c(F)c2n1 (stereo partly drawn) [Compound 490, 4-(4-(4-(1H-imidazol-1-yl)-azepan-1-yl)-6-chloro-8-fluoro-2-(((S)-1-methylpyr-rolidin-2-yl)methoxy)quin-azolin-7-yl)benzo[d]thiazol-2-amine] | < 6.30 | > 6.30
Nc1nc2ccccc2c(-c2ccc3c(N4CC5CCC(C4)N5)nc(OCC45CCCN4CCC5)nc3c2F)c1Cl [Compound 493, 4-(4-(3,8-diazabicyclo-[3.2.1]octan-3-yl)-8-fluoro-2-((tetrahydro-1H-pyrrol-izin-7a(5H)-yl)methoxy)-quinazolin-7-yl)-3-chloro-quinolin-2-amine] | < 6.30 | > 6.30
Nc1cc(-c2ccc3c(N4CC5CCC(C4)N5)nc(OCC45CCCN4CCC5)nc3c2F)c2c(Cl)cccc2n1 [Compound 498, 4-(4-(3,8-diazabicyclo-[3.2.1]octan-3-yl)-8-fluoro-2-((tetrahydro-1H-pyrrol-izin-7a(5H)-yl)methoxy)-quinazolin-7-yl)-5-chloro-quinolin-2-amine] | < 6.30 | > 6.30
Nc1nc2c(-c3c(Cl)cc4c(N5CCCCCC5)nc(OC[C@@]56CCCN5C[C@H](F)C6)nc4c3F)ccc(F)c2s1 [Compound 499, 4-(4-(azepan-1-yl)-6-chloro-8-fluoro-2-(((2R,7aS)-2-fluorotetrahydro-1H-pyrrol-izin-7a(5H)-yl)methoxy)-quinazolin-7-yl)-7-fluoro-benzo[d]thiazol-2-amine] | > 6.30 | > 6.30

Now from value to compound:

pIC50 [1] | pIC50 (wildtype Kras / hSOS1) | SMILES
> 6.30 | > 6.30 | CN1[C@@H]2CC[C@H]1CN(c1nc(OC[C@@]34CCCN3C[C@H](F)C4)nc3c(F)c(-c4ccc(F)c5sc(N)nc45)c(Cl)cc13)C2 [Compound 470, 4-(6-chloro-8-fluoro-2-(((2R,7aS)-2-fluorotetrahydro-1H-pyrrolizin-7a(5H)-yl)methoxy)-4-((1R,5S)-8-methyl-3,8-diazabicyclo[3.2.1]octan-3-yl)quinazolin-7-yl)-7-fluorobenzo[d]thiazol-2-amine]
> 6.30 | > 6.30 | N#Cc1c(N)sc2cc(F)cc(-c3c(Cl)cc4c(N5CC6CCC(C5)N6)nc(OC[C@@]56CCCN5C[C@H](F)C6)nc4c3F)c12 [Compound 476, 4-(4-(3,8-diazabicyclo-[3.2.1]octan-3-yl)-6-chloro-8-fluoro-2-(((2R,7aS)-2-fluorotetrahydro-1H-pyrrolizin-7a(5H)-yl)meth-oxy)quinazolin-7-yl)-2-amino-6-fluorobenzo[b]-thiophene-3-carbonitrile]
> 6.30 | > 6.30 | Nc1nc2c(-c3c(Cl)cc4c(N5CCC[C@@H](O)CC5)nc(OC[C@@]56CCCN5C[C@H](F)C6)nc4c3F)ccc(F)c2s1 [Compound 480, (4R)-1-(7-(2-amino-7-fluorobenzo[d]thiazol-4-yl)-6-chloro-8-fluoro-2-(((2R,7aS)-2-fluorotetra-hydro-1H-pyrrolizin-7a(5H)-yl)methoxy)quinazolin-4-yl)azepan-4-ol]
> 6.30 | > 6.30 | Nc1nc2c(-c3c(Cl)cc4c(N5CCCC(CO)CC5)nc(OC[C@@]56CCCN5C[C@H](F)C6)nc4c3F)ccc(F)c2s1 (stereo partly drawn) [Compound 485, (1-(7-(2-amino-7-fluoro-benzo[d]thiazol-4-yl)-6-chloro-8-fluoro-2-(((2R,7aS)-2-fluorotetra-hydro-1H-pyrrolizin-7a(5H)-yl)methoxy)quinazolin-4-yl)azepan-4-yl)methanol]
> 6.30 | > 6.30 | Nc1nc2c(-c3c(Cl)cc4c(N5CCC6CCC(C5)N6)nc(OCC56CCCN5CCC6)nc4c3F)ccc(F)c2s1 (stereo not shown) [Compound 494, 4-(4-(3,9-diazabicyclo-[4.2.1]nonan-3-yl)-6-chloro-8-fluoro-2-((tetrahydro-1H-pyrrolizin-7a(5H)-yl)meth-oxy)quinazolin-7-yl)-7-fluorobenzo[d]thiazol-2-amine]
< 6.30 | > 6.30 | N#C/C=C/c1cc2c(N3CC4CCC(C3)N4)nc(OC[C@@]34CCCN3C[C@H](F)C4)nc2c(F)c1-c1ccc(F)c2sc(N)nc12 [Compound 495, (E)-3-(7-(2-amino-7-fluoro-benzo[d]thiazol-4-yl)-4-(3,8-diazabicyclo[3.2.1]octan-3-yl)-8-fluoro-2-(((2R,7aS)-2-fluorotetrahydro-1H-pyrrol-izin-7a(5H)-yl)methoxy)-quinazolin-6-yl)acrylonitrile]
> 6.30 | > 6.30 | N#CCCc1cc2c(N3CC4CCC(C3)N4)nc(OC[C@@]34CCCN3C[C@H](F)C4)nc2c(F)c1-c1ccc(F)c2sc(N)nc12 [Compound 496, 3-(7-(2-amino-7-fluoroben-zo[d]thiazol-4-yl)-4-(3,8-diazabicyclo[3.2.1]octan-3-yl)-8-fluoro-2-(((2R,7aS)-2-fluorotetrahydro-1H-pyrrol-izin-7a(5H)-yl)methoxy)-quinazolin-6-yl)propane-nitrile]
